Data as given in patent US20120171123A1, “USES AND COMPOSITIONS FOR TREATMENT OF RHEUMATOID ARTHRITIS” (priority 2006, published 2012).

System: MTX-naïve adult patients with active, early RA (<3 years)
Test: Study J: radiographic progression (TSS, joint erosion, joint space narrowing)
Type: in vivo, human
Set-up: key to mean change from baseline in TSS / Mean change in TSS / TSS after 2 years / change in TSS over 2 years / mean change in TSS from baseline / Mean ΔTSS at 1 year / Mean ΔTSS Yr 1-Yr 2: modified total Sharp score, 0-398 scale
Details: for Annualized rate of radiographic progression (ΔTSS): all pts in treatment arm
From the text: The co-primary endpoints, comparing MTX alone with the combination at 1 year, were the ACR50 response (using non-responder imputation), and inhibition of radiographic progression, as measured by change in total Sharp score (TSS). In this study, the term “Major Clinical Response” (MCR) meant a continuous ACR70 response for 6 or more consecutive months.
At 1 and 2 years, the American College of Rheumatology (ACR) responses (ACR20, ACR50, and ACR70), the Disease Activity Score 28 (DAS28), and the change (Δ) in Total Sharp Score (TSS) were determined for all patients. Results were analyzed for the intention-to-treat (ITT) population using imputation for missing data. Clinical remission was defined as DAS28<2.6. The mean ΔTSS values at 1 year and 2 years (N=791) were determined for patients in each ACR response category (ACR20/50/70) and for patients with DAS28<2.6
Radiographic progression was measured by Total Sharp Score (TSS) at baseline, and 1 and 2 years in the intention to treat population (ITT) using imputation for missing data. In this analysis, patients were divided into 1 of 2 categories by disease duration at baseline: <6 months (Group 1) or 6 months to 3 years (Group 2). Mean changes in TSS were reported for both groups by each of the 3 treatment arms from baseline to Year 1 and from Year 1 to Year 2.
Radiographic progression was assessed by mean change from baseline in Total Sharp Score (TSS) and stratified into those with (ΔTSS>0.5) and without (Δ≦TSS 0.5). Patients were categorized as either having radiographic progression at 1 year (ΔTSS>0.5) or not (Δ≦TSS 0.5). A logistic regression model was used to identify predictors of radiographic disease progression by testing several baseline characteristics, including age, disease duration, RF status, TJC, SJC, joint erosions, and CRP. For analyses of CRP, patients were categorized as normal (CRP≦0.8 mg/dL) or abnormal (CRP>0.8 mg/dL).
Mean change from baseline in Total Sharp Score (TSS) was measured at 6 months, 1 year, and 2 years in the intention-to-treat (ITT) population using imputation for missing data. Patients were classified as having radiographic progression (mean change in TSS>0.5) or without radiographic progression (ΔTSS≦0.5). Patients with inadequate data were excluded from this analysis.
Patients in the Ada+MTX and the MTX arms were classified according to level of clinical response (non-responder (<ACR20), ACR20, ACR50, or ACR70) and radiographic progression (Yes or No (ΔTSS≦0.5)). The ΔTSS was analyzed overall, and for ACR subgroups. This included determination of mean ΔTSS and probability plots.
Study J was a 2-year, double-blind, active comparator-controlled, Phase III study. […] For each patient, radiographs of hands and feet were taken at baseline, 6 months, 1 year and 2 years and evaluated for joint erosions (JE) and joint space narrowing (JSN) by 2 blinded radiologists. Changes from baseline in the modified total Sharp score (TSS, 0-398) were calculated for patients in each treatment arm. Cumulative probability plots were generated by estimating the probability of exceeding a given change in TSS. For each treatment, we calculated the percentages of patients whose ΔTSS exceeded specified thresholds, and the probability of having a given ΔTSS (using cumulative probability plots). For each of 4 cumulative probability ranges, 0-10%, 10-50%, 50-90% and 90-100% (higher numbered ranges=greater ΔTSS), mean ΔTSS values were calculated. In previous reports, Study J radiographic analyses employed linear imputation. In the present analysis, only observed data were employed, with no imputation.

[1] = Group 1, BL disease duration <6 mos (n=448)
[2] = Group 2, BL disease duration 6 mos to 3 yrs (n=333)
[3] = disease duration 6 months to 3 years
[4] = disease duration 6 months-3 years (n=333)

## CN(Cc1cnc2nc(N)nc(N)c2n1)c1ccc(C(=O)N[C@@H](CCC(=O)O)C(=O)O)cc1 [mtx alone, methotrexate]
0-6 mos
  Annualized rate of radiographic progression (ΔTSS): 7.0 Sharp Score Units per Year
1-2 yrs
  Annualized rate of radiographic progression (ΔTSS): 4.7 Sharp Score Units per Year
1 year
  patients with ΔTSS≦0.5 among those achieving DAS28 remission: 47%
1 year, ACR20 responders
  Mean change in TSS: 3.9
  mean change in JE score: 2.0
  mean change in JSN: 1.4
1 year, ACR50 responders
  Mean change in TSS: 3.2
  mean change in JE score: 2.2
  mean change in JSN: 1.0
1 year, ACR70 responders
  Mean change in TSS: 2.7
  mean change in JE score: 1.6
  mean change in JSN: 1.1
1 year, abnormal baseline CRP normalized at 1 year
  patients with no radiographic progression: 33%
1 year, elevated CRP at both baseline and 1 year
  patients with no radiographic progression: 31%
1 year, patients with CRP and X-rays available
  patients with no disease progression (ΔTSS≦0.5): 38%
1 year, patients with DAS28<2.6
  Mean change in TSS: 1.9
1 year, patients with DAS28<2.6, listed as MTX alone
  Mean change in TSS: 2.8
2 years
  % of patients with >4 change TSS: 41.3%
  % of patients with >10 change TSS: 23.3%
  % of patients with >20 change TSS: 7%
  patients with no radiographic progression (change in TSS ≦0.5): 34%
  patients with ΔTSS≦0.5 among those achieving DAS28 remission: 47%
2 years, ACR20 responders
  Mean change TSS in radiographic progressors (ΔTSS > 0.5): 9.4
  mean change in JE score: 3.6
  mean change in JSN: 2.3
  mean change in TSS from baseline: 5.5
2 years, ACR20 responders, listed as MTX alone
  mean change in TSS from baseline: 5.8
2 years, ACR50 responders
  Mean change TSS in radiographic progressors (ΔTSS > 0.5): 8.5
  mean change in JE score: 3.0
  mean change in JSN: 1.8
  mean change in TSS from baseline: 4.9
2 years, ACR70 responders
  Mean change TSS in radiographic progressors (ΔTSS > 0.5): 7.5
  mean change in JE score: 2.6
  mean change in JSN: 1.4
  mean change in TSS from baseline: 4.1
2 years, patients with DAS28<2.6
  Mean change in TSS: 2.8
2 years, patients with DAS28<2.6, listed as MTX alone
  Mean change in TSS: 1.9
2 years, ACR20 responders, observed data
  Frequency of radiographic progression (ΔTSS > 0.5), % of patients: 62%
2 years, ACR50 responders, observed data
  Frequency of radiographic progression (ΔTSS > 0.5), % of patients: 60%
2 years, ACR70 responders, observed data
  Frequency of radiographic progression (ΔTSS > 0.5), % of patients: 57%
2 years, Non-responder (<ACR20)
  Mean change TSS in radiographic progressors (ΔTSS > 0.5): 15.5
2 years, Non-responder (<ACR20), observed data
  Frequency of radiographic progression (ΔTSS > 0.5), % of patients: 75%
2 years, all points (0-100), observed data
  Mean change in TSS: 6.4
2 years, cumulative probability range 0-10
  Mean change in TSS: −3.9
2 years, cumulative probability range 10-50
  Mean change in TSS: 0.5
2 years, cumulative probability range 50-90
  Mean change in TSS: 7.6
2 years, cumulative probability range 90-100
  Mean change in TSS: 31.4
6 months
  % of patients with >4 change TSS: 0%
  % of patients with >10 change TSS: 1.7%
  % of patients with >20 change TSS: 2.3%
  patients with no radiographic progression: 51%
6 months, ACR20 responders
  Mean change TSS in radiographic progressors (ΔTSS > 0.5): 4.8
6 months, ACR20 responders, observed data
  Frequency of radiographic progression (ΔTSS > 0.5), % of patients: 55%
6 months, ACR50 responders
  Mean change TSS in radiographic progressors (ΔTSS > 0.5): 3.8
6 months, ACR50 responders, observed data
  Frequency of radiographic progression (ΔTSS > 0.5), % of patients: 51%
6 months, ACR70 responders
  Mean change TSS in radiographic progressors (ΔTSS > 0.5): 3.4
6 months, ACR70 responders, observed data
  Frequency of radiographic progression (ΔTSS > 0.5), % of patients: 49%
6 months, Non-responder (<ACR20)
  Mean change TSS in radiographic progressors (ΔTSS > 0.5): 10.8
6 months, Non-responder (<ACR20), observed data
  Frequency of radiographic progression (ΔTSS > 0.5), % of patients: 59%
6 months, all points (0-100), observed data
  Mean change in TSS: 3.4
6 months, cumulative probability range 0-10
  Mean change in TSS: −2.0
6 months, cumulative probability range 10-50
  Mean change in TSS: 0.2
6 months, cumulative probability range 50-90
  Mean change in TSS: 4.4
6 months, cumulative probability range 90-100
  Mean change in TSS: 16.5
6 mos-1 yr
  Annualized rate of radiographic progression (ΔTSS): 4.4 Sharp Score Units per Year
26 weeks, observed data
  Mean change in TSS: 3.4
52 weeks, observed data
  Mean change in TSS: 5.2
104 weeks, observed data
  Mean change in TSS: 6.4
CRP (BL and Year 1) Abnormal to Normal
  Patients with No Radiographic Progression at 1 Year: 33%
CRP (BL and Year 1) Always Normal
  Patients with No Radiographic Progression at 1 Year: 86%
CRP (BL and Year 1) Never Normal
  Patients with No Radiographic Progression at 1 Year: 31%
[1]
  Mean ΔTSS Yr 1-Yr 2: 5.8
  Mean ΔTSS at 1 year: 7.4
[2]
  Mean ΔTSS Yr 1-Yr 2: 3.4
  Mean ΔTSS at 1 year: 3.8
Study J
  No Progression at Month 6, %: 51%
  No Progression at Month 6, patients/total: 129/252
  No Progression at Month 6 and Year 2, %: 61%
  No Progression at Month 6 and Year 2, patients/Month-6 non-progressors: 79/129
Among Mo-6 Non-Progressors
  Yr-2 Non-P, %: 61%
  Yr-2 Non-P, number of patients: 79
  Yr-2 Prog, %: 39%
  Yr-2 Prog, number of patients: 50
Among Mo-6 Progressors
  Yr-2 Non-P, %: 6%
  Yr-2 Non-P, number of patients: 7
  Yr-2 Prog, %: 94%
  Yr-2 Prog, number of patients: 116
[3]
  TSS after 2 years: 32.2
  change in TSS over 2 years: 7.2
[4]
  mean change TSS during year 1: 3.8 sharp score units
  mean change TSS during year 2: 3.4 sharp score units
Disease duration <6 months
  TSS after 2 years: 32.4
  change in TSS over 2 years: 13.2
  mean change TSS during year 1: 7.4 sharp score units
  mean change TSS during year 2: 5.8 sharp score units
In vivo
  rate of change in TSS in ACR20 responders, relative to combination therapy: 7 times
No progression = ΔTSS≦0.5
  Mo-6 Non-Progressors, % of arm: 51%
  Mo-6 Non-Progressors, number of patients: 129
No progression at month 6
  patients with no progression at year 2: 61%
Progression = ΔTSS>0.5
  Mo-6 Progressors, % of arm: 49%
  Mo-6 Progressors, number of patients: 123
Progression at month 6
  patients with no progression at year 2: 6%
Week 26, ITT with imputation
  mean change from baseline in TSS: 3.5
Week 52 (1 year), ITT with imputation
  mean change from baseline in TSS: 5.7
Week 104 (2 years), ITT with imputation
  mean change from baseline in TSS: 10.4
